Non-standard residues stand in square brackets, D forms with d. Residues, ends and D or L forms follow the SMILES beside them. *: point of attachment. DOTA = O=C(O)CN1CCN(CC(=O)O)CCN(CC(=O)*)CCN(CC(=O)O)CC1; Bpa = N[C@@H](Cc1ccc(C(=O)c2ccccc2)cc1)C(=O)O; Ala(4-thiazolyl) = N[C@@H](Cc1cscn1)C(=O)O; d2Nal = N[C@H](Cc1ccc2ccccc2c1)C(=O)O; 3Pal = N[C@@H](Cc1cccnc1)C(=O)O; azaGly = NNC(=O)O; Sar = CNCC(=O)O Where only a bound is given, the exact number is not on record here.
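Note: Cell-associated radioactivity on confluent EFO-27 monolayers in 96-well plates, measured by microplate scintillation counting.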

The first assay has as its system LHRH binding sites on human ovarian cancer cells (EFO-27).
Settings: not given
Consider `CN(CC(=O)N[C@@H](Cc1c[nH]cn1)C(=O)N[C@@H](Cc1c[nH]c2ccccc12)C(=O)N[C@@H](CO)C(=O)N[C@@H](Cc1c[nH]cn1)C(=O)N[C@H](CCCNC(=N)N)C(=O)N[C@@H](Cc1c[nH]c2ccccc12)C(=O)N[C@@H](Cc1c[nH]cn1)C(=O)N1CCC[C@H]1C(=O)NNC(N)=O)C(=O)CN1CCN(CC(=O)O)CCN(CC(=O)O)CCN(CC(=O)O)CC1` [BRU-2763] (HELM PEPTIDE1{[O=C(O)CN1CCN(CC(=O)O)CCN(CC(=O)[*:2])CCN(CC(=O)O)CC1].[Sar].H.W.S.H.[dR].W.H.P.[O=C(NN[*:1])[*:2]].[am]}$$$$V2.0), for which the EC50 (commonly the concentration needed to bring the measured effect to its halfway point) stood at 13600 nM. Compound `N=C(N)NCCC[C@H](NC(=O)[C@H](N)Cc1ccc2ccccc2c1)C(=O)N[C@@H](Cc1c[nH]c2ccccc12)C(=O)N[C@@H](CO)C(=O)N[C@@H](Cc1c[nH]cn1)C(=O)N[C@H](CCCNC(=N)N)C(=O)N[C@@H](Cc1c[nH]c2ccccc12)C(=O)N[C@@H](Cc1ccc(C(=O)c2ccccc2)cc1)C(=O)N1CCC[C@H]1C(=O)NCC(=O)NCCCCNC(=O)CN1CCN(CC(=O)O)CCN(CC(=O)O)CCN(CC(=O)O)CC1` [compound 2990] had an EC50 of 30200 ± 8280 nM. Compound `CN(CC(=O)N[C@@H](Cc1c[nH]cn1)C(=O)N[C@@H](Cc1c[nH]c2ccccc12)C(=O)N[C@@H](CO)C(=O)N[C@@H](Cc1c[nH]cn1)C(=O)N[C@H](CCCNC(=N)N)C(=O)N[C@@H](Cc1c[nH]c2ccccc12)C(=O)N[C@@H](Cc1ccc(C(C)(C)C)cc1)C(=O)N1CCC[C@H]1C(=O)NNC(N)=O)C(=O)CN1CCN(CC(=O)O)CCN(CC(=O)O)CCN(CC(=O)O)CC1` [BRU-2634] had an EC50 of 980 nM. `CN(CC(=O)N[C@@H](Cc1cscn1)C(=O)N[C@@H](Cc1c[nH]c2ccccc12)C(=O)N[C@@H](CO)C(=O)N[C@@H](Cc1cscn1)C(=O)N[C@H](CCCNC(=N)N)C(=O)N[C@@H](Cc1c[nH]c2ccccc12)C(=O)N[C@@H](Cc1ccc(C(=O)c2ccccc2)cc1)C(=O)N1CCC[C@H]1C(=O)NNC(N)=O)C(=O)CN1CCN(CC(=O)O)CCN(CC(=O)O)CCN(CC(=O)O)CC1` [BRU-2762] ({DOTA}-[Sar][Ala(4-thiazolyl)]WS[Ala(4-thiazolyl)][dR]W[Bpa]P[azaGly]-NH2; C-terminus assumed): the EC50 came out at 15000 nM.

Regarding `N=C(N)NCCC[C@H](NC(=O)[C@H](N)Cc1ccc2ccccc2c1)C(=O)N[C@@H](Cc1c[nH]c2ccccc12)C(=O)N[C@@H](CO)C(=O)N[C@@H](Cc1c[nH]cn1)C(=O)N[C@H](CCCNC(=N)N)C(=O)N[C@@H](Cc1c[nH]c2ccccc12)C(=O)N[C@@H](Cc1ccc(C(=O)c2ccccc2)cc1)C(=O)N1CCC[C@H]1C(=O)NCCCCNC(=O)CN1CCN(CC(=O)O)CCN(CC(=O)O)CCN(CC(=O)O)CC1` [BRU-3042], the EC50 is no more than 200 nM. Consider `CN(CC(=O)N[C@@H](Cc1cccnc1)C(=O)N[C@@H](Cc1c[nH]c2ccccc12)C(=O)N[C@@H](CO)C(=O)N[C@@H](Cc1c[nH]cn1)C(=O)N[C@H](CCCNC(=N)N)C(=O)N[C@@H](Cc1c[nH]c2ccccc12)C(=O)N[C@@H](Cc1ccc(C(=O)c2ccccc2)cc1)C(=O)N1CCC[C@H]1C(=O)NNC(N)=O)C(=O)CN1CCN(CC(=O)O)CCN(CC(=O)O)CCN(CC(=O)O)CC1` [BRU-2818] ({DOTA}-[Sar][3Pal]WSH[dR]W[Bpa]P[azaGly]-NH2), for which a half-maximal effect (EC50) was put at 1620 nM.

The compound `CN(CC(=O)N[C@@H](Cc1c[nH]cn1)C(=O)N[C@@H](Cc1c[nH]c2ccccc12)C(=O)N[C@@H](CO)C(=O)N[C@@H](Cc1c[nH]cn1)C(=O)N[C@H](CCCNC(=N)N)C(=O)N[C@@H](Cc1c[nH]c2ccccc12)C(=O)N[C@@H](Cc1cccnc1)C(=O)N1CCC[C@H]1C(=O)NNC(N)=O)C(=O)CN1CCN(CC(=O)O)CCN(CC(=O)O)CCN(CC(=O)O)CC1` [BRU-2726] returned an EC50 of 17400 nM. Consider `CNCC(=O)N[C@@H](CCCNC(=N)N)C(=O)N[C@@H](Cc1c[nH]c2ccccc12)C(=O)N[C@@H](CO)C(=O)N[C@@H](Cc1c[nH]cn1)C(=O)N[C@H](CCCNC(=N)N)C(=O)N[C@@H](Cc1c[nH]c2ccccc12)C(=O)N[C@@H](Cc1ccc(C(=O)c2ccccc2)cc1)C(=O)N1CCC[C@H]1C(=O)NCCCNC(=O)CN1CCN(CC(=O)O)CCN(CC(=O)O)CCN(CC(=O)O)CC1` [compound 3076], for which the EC50 came to 750 ± 40 nM. `N=C(N)NCCC[C@H](NC(=O)[C@H](CO)NC(=O)[C@H](Cc1c[nH]c2ccccc12)NC(=O)[C@H](CCCNC(=N)N)NC(=O)[C@@H](Cc1ccc2ccccc2c1)NC(=O)CN1CCN(CC(=O)O)CCN(CC(=O)O)CCN(CC(=O)O)CC1)C(=O)N[C@H](Cc1c[nH]c2ccccc12)C(=O)N[C@@H](Cc1c[nH]c2ccccc12)C(=O)N[C@@H](Cc1ccc(C(=O)c2ccccc2)cc1)C(=O)N1CCC[C@H]1C(=O)NNC(N)=O` [compound 3001] ({DOTA}-[d2Nal]RWSR[dW]W[Bpa]P[azaGly]-NH2): the EC50 worked out at 3280 nM. In the case of `CNCC(=O)N[C@@H](CCCNC(=N)N)C(=O)N[C@@H](Cc1c[nH]c2ccccc12)C(=O)N[C@@H](CO)C(=O)N[C@@H](Cc1c[nH]cn1)C(=O)N[C@H](CCCNC(=N)N)C(=O)N[C@@H](Cc1c[nH]c2ccccc12)C(=O)N[C@@H](Cc1ccc(C(=O)c2ccccc2)cc1)C(=O)N1CCC[C@H]1C(=O)NCCCN1CCN(CCCNC(=O)CN2CCN(CC(=O)O)CCN(CC(=O)O)CCN(CC(=O)O)CC2)CC1` [BRU-3044], the EC50 lay within 230 to 500 nM. `N=C(N)NCCC[C@@H](NC(=O)[C@H](Cc1c[nH]cn1)NC(=O)[C@H](CO)NC(=O)[C@H](Cc1c[nH]c2ccccc12)NC(=O)[C@H](Cc1c[nH]cn1)NC(=O)[C@H](Cc1ccc2ccccc2c1)NC(=O)CN1CCN(CC(=O)O)CCN(CC(=O)O)CCN(CC(=O)O)CC1)C(=O)N[C@@H](Cc1c[nH]c2ccccc12)C(=O)N[C@@H](Cc1ccc(C(=O)c2ccccc2)cc1)C(=O)N1CCC[C@H]1C(=O)NNC(N)=O` [BRU-2809] had an EC50 of 3540 nM. On to `CC(C)C[C@H](NC(=O)[C@H](Cc1c[nH]c2ccccc12)NC(=O)[C@H](CCCNC(=N)N)NC(=O)[C@@H](Cc1ccc2ccccc2c1)NC(=O)CN1CCN(CC(=O)O)CCN(CC(=O)O)CCN(CC(=O)O)CC1)C(=O)N[C@@H](Cc1c[nH]cn1)C(=O)N[C@H](CCCNC(=N)N)C(=O)N[C@@H](Cc1c[nH]c2ccccc12)C(=O)N[C@@H](Cc1ccc(C(=O)c2ccccc2)cc1)C(=O)N1CCC[C@H]1C(=O)NNC(N)=O` [compound 3113] ({DOTA}-[d2Nal]RWLH[dR]W[Bpa]P[azaGly]-NH2), for which the EC50 worked out at 1130 nM.

With `CNCC(=O)N[C@@H](CCCNC(=N)N)C(=O)N[C@@H](Cc1c[nH]c2ccccc12)C(=O)N[C@@H](CO)C(=O)N[C@@H](Cc1c[nH]cn1)C(=O)N[C@H](CCCNC(=N)N)C(=O)N[C@@H](Cc1c[nH]c2ccccc12)C(=O)N[C@@H](Cc1ccc(C(=O)c2ccccc2)cc1)C(=O)N1CCC[C@H]1C(=O)NCCOCCOCCNC(=O)CN1CCN(CC(=O)O)CCN(CC(=O)O)CCN(CC(=O)O)CC1` [compound 3043], the EC50 worked out at 330 ± 180 nM. The same measure, in the same setting: the figure for `NCCCC[C@@H](NC(=O)[C@H](Cc1c[nH]cn1)NC(=O)[C@H](CO)NC(=O)[C@H](Cc1c[nH]c2ccccc12)NC(=O)[C@H](Cc1c[nH]cn1)NC(=O)[C@@H]1CCC(=O)N1)C(=O)N[C@@H](Cc1c[nH]c2ccccc12)C(=O)N[C@@H](Cc1ccc(O)cc1)C(=O)N1CCC[C@H]1C(=O)NNC(N)=O` [BRU-2437] (HELM PEPTIDE1{[Glp].H.W.S.H.[dK].W.Y.P.[O=C(NN[*:1])[*:2]].[am]}$$$$V2.0) is 8540 nM; for `CCNC(=O)[C@@H]1CCCN1C(=O)[C@H](Cc1ccc(C(=O)c2ccccc2)cc1)NC(=O)[C@H](Cc1c[nH]c2ccccc12)NC(=O)[C@@H](CCCNC(=N)N)NC(=O)[C@H](Cc1c[nH]cn1)NC(=O)[C@H](CO)NC(=O)[C@H](Cc1c[nH]c2ccccc12)NC(=O)[C@H](CCCNC(=N)N)NC(=O)[C@@H](Cc1ccc2ccccc2c1)NC(=O)CN1CCN(CC(=O)O)CCN(CC(=O)O)CCN(CC(=O)O)CC1` [compound 2981] it is 970 nM.

The assay is the same for the next values; noted with them: EFO-27 cells, competition with [125I-Tyr8]BRU-2477, 90 min.
Compound `N=C(N)NCCC[C@H](NC(=O)CNC(=O)[C@@H]1CCCN1C(=O)[C@H](Cc1ccc(C(=O)c2ccccc2)cc1)NC(=O)[C@H](Cc1c[nH]c2ccccc12)NC(=O)[C@@H](CCCNC(=N)N)NC(=O)[C@H](Cc1c[nH]cn1)NC(=O)[C@H](CO)NC(=O)[C@H](Cc1c[nH]c2ccccc12)NC(=O)[C@H](CCCNC(=N)N)NC(=O)[C@@H](Cc1ccc2ccccc2c1)NC(=O)CN1CCN(CC(=O)O)CCN(CC(=O)O)CCN(CC(=O)O)CC1)C(N)=O` [compound 2969] ({DOTA}-[d2Nal]RWSH[dR]W[Bpa]PGR-NH2) showed a concentration for a half-maximal effect (EC50) of 240 nM.

The same assay, now with this note: Table 5: modifications of amino acids at positions 1 and 2; in vitro binding on EFO-27 cells.
In turn, `CN(CC(=O)N[C@@H](Cc1ccc(O)cc1)C(=O)N[C@@H](Cc1c[nH]c2ccccc12)C(=O)N[C@@H](CO)C(=O)N[C@@H](Cc1c[nH]cn1)C(=O)N[C@H](CCCNC(=N)N)C(=O)N[C@@H](Cc1c[nH]c2ccccc12)C(=O)N[C@@H](Cc1ccc(C(=O)c2ccccc2)cc1)C(=O)N1CCC[C@H]1C(=O)NNC(N)=O)C(=O)CN1CCN(CC(=O)O)CCN(CC(=O)O)CCN(CC(=O)O)CC1` [BRU-2814] ({DOTA}-[Sar]YWSH[dR]W[Bpa]P[azaGly]-NH2) yielded an EC50 of 2240 nM.

In turn, `N=C(N)NCCC[C@@H](NC(=O)[C@H](Cc1c[nH]cn1)NC(=O)[C@H](CO)NC(=O)[C@H](Cc1c[nH]c2ccccc12)NC(=O)[C@H](Cc1c[nH]cn1)NC(=O)[C@@H](Cc1cccc2ccccc12)NC(=O)CNC(=O)CN1CCN(CC(=O)O)CCN(CC(=O)O)CCN(CC(=O)O)CC1)C(=O)N[C@@H](Cc1c[nH]c2ccccc12)C(=O)N[C@@H](Cc1ccc(C(=O)c2ccccc2)cc1)C(=O)N1CCC[C@H]1C(=O)NNC(N)=O` [BRU-2766] had an EC50 of 620 nM. Consider `N=C(N)NCCC[C@@H](NC(=O)[C@H](Cc1c[nH]cn1)NC(=O)[C@H](CO)NC(=O)[C@H](Cc1c[nH]c2ccccc12)NC(=O)[C@H](Cc1c[nH]cn1)NC(=O)[C@@H]1CCCN1C(=O)CNC(=O)CN1CCN(CC(=O)O)CCN(CC(=O)O)CCN(CC(=O)O)CC1)C(=O)N[C@@H](Cc1c[nH]c2ccccc12)C(=O)N[C@@H](Cc1ccc(C(=O)c2ccccc2)cc1)C(=O)N1CCC[C@H]1C(=O)NNC(N)=O` [BRU-2667] ({DOTA}-GPHWSH[dR]W[Bpa]P[azaGly]-NH2), for which the EC50 came to 7290 nM.

The values are drawn from patent publication US20120045393A1 (priority 2009, published 2012).
